Reference: patent publication US20090018111A1, “Novel Antimicrobial Medicament” (priority 2004, published 2009)

Legend:
Test in all cases: Sensitivity test (agar dilution), clinical isolate
S. marcescens 14424 = assay type: cell-based, Serratia marcescens
Experimental: (§1) In addition, the antibacterial activities were tested against strains which are comparatively less sensitive to β-lactam compounds, namely clinically isolated 13 strains of Acinetobacter calcoaceticus and Acinetobacter lwoffi, clinically isolated 11 strains of Serratia marcescens, clinically isolated 12 strains of Burkholderia cepacia, and clinically isolated 15 strains of Pseudomonas aeruginosa.
(§2) According to the standard method of Japan Chemotherapeutic Society (Chemotherapy, vol. […], p 76-79 (1981)) the test was carried out using the agar dilution method. After dissolving test samples in distilled water, agar medium containing the test samples was prepared in such a manner that the final concentration became twice serial dilution by pouring serially diluted combination drug solution or a single drug solution into agar medium. As agar medium was used Mueller Hinton Agar medium (MHA). Then, each strain was cultivated over night at 37° C. in an incubator and suspended in buffered saline solution with gelatin (BSG) in the concentration of about 10^6 CFU/ml. The suspension (about 5 μl) containing test strains was inoculated to the medium containing the test samples by Micro Planter.
(§3) Each drug was weighed, and dissolved in distilled water to give a test sample. When the drugs are used in combination, two kinds of solution containing each drug were mixed so as to be various ratio of concentration to give a mixed solution. When the sample is subjected to sensitivity test, this mixed solution was diluted by twice serial dilution method.
(§4) Furthermore, when the drug is solely used, each test sample was used as it is, and diluted by twice serial dilution method from the maximum concentration to the minimum concentration.

S. marcescens 14425 = assay type: cell-based, Serratia marcescens
Experimental: as §1, §2, §3, §4

S. marcescens 14689 = assay type: cell-based, Serratia marcescens
Experimental: as §1, §2, §3, §4

S. marcescens 14981 = assay type: cell-based, Serratia marcescens
Experimental: as §1, §2, §3, §4

S. marcescens 14991 = assay type: cell-based, Serratia marcescens
Experimental: as §1, §2, §3, §4

S. marcescens 1928513 = assay type: cell-based, Serratia marcescens
Experimental: as §1, §2, §3, §4

S. marcescens 1944950 = assay type: cell-based, Serratia marcescens
Experimental: as §1, §2, §3, §4

S. marcescens 2012884 = assay type: cell-based, Serratia marcescens
Experimental: as §1, §2, §3, §4

S. marcescens 2054522 = assay type: cell-based, Serratia marcescens
Experimental: as §1, §2, §3, §4

S. marcescens 7138 = assay type: cell-based, Serratia marcescens
Experimental: as §1, §2, §3, §4

S. marcescens 7155 = assay type: cell-based, Serratia marcescens
Experimental: as §1, §2, §3, §4

P. aeruginosa 13224 = assay type: cell-based, Pseudomonas aeruginosa
Experimental: as §1, §2, §3, §4

P. aeruginosa 13245 = assay type: cell-based, Pseudomonas aeruginosa
Experimental: as §1, §2, §3, §4

P. aeruginosa 13280 = assay type: cell-based, Pseudomonas aeruginosa
Experimental: as §1, §2, §3, §4

P. aeruginosa 13285 = assay type: cell-based, Pseudomonas aeruginosa
Experimental: as §1, §2, §3, §4

C[C@@H](O)[C@H]1C(=O)N2C(C(=O)O)=C(S[C@@H]3CN[C@H](C(=O)N(C)C)C3)[C@H](C)[C@H]12 [MEPM, meropenem]
MIC (S. marcescens 14424; Serratia marcescens, 14424, Concomitant (ME:SM = 1:1)): 8 µg/mL | MIC (S. marcescens 14424; Serratia marcescens, 14424, Concomitant (ME:SM = 1:2)): 2 µg/mL | MIC (S. marcescens 14424; Serratia marcescens, 14424, Concomitant (ME:SM = 1:4)): 2 µg/mL | MIC (S. marcescens 14424; Serratia marcescens, 14424, Concomitant (ME:SM = 2:1)): 4 µg/mL | MIC (S. marcescens 14424; Serratia marcescens, 14424, alone): 4 µg/mL | MIC (S. marcescens 14425; Serratia marcescens, 14425, Concomitant (ME:SM = 1:1)): 0.031 µg/mL | MIC (S. marcescens 14425; Serratia marcescens, 14425, Concomitant (ME:SM = 1:2)): 0.031 µg/mL | MIC (S. marcescens 14425; Serratia marcescens, 14425, Concomitant (ME:SM = 1:4)): 0.031 µg/mL | MIC (S. marcescens 14425; Serratia marcescens, 14425, Concomitant (ME:SM = 2:1)): 0.031 µg/mL | MIC (S. marcescens 14425; Serratia marcescens, 14425, alone): 0.031 µg/mL | MIC (S. marcescens 14689; Serratia marcescens, 14689, Concomitant (ME:SM = 1:1)): 2 µg/mL | MIC (S. marcescens 14689; Serratia marcescens, 14689, Concomitant (ME:SM = 1:2)): 2 µg/mL | MIC (S. marcescens 14689; Serratia marcescens, 14689, Concomitant (ME:SM = 1:4)): 2 µg/mL | MIC (S. marcescens 14689; Serratia marcescens, 14689, Concomitant (ME:SM = 2:1)): 4 µg/mL | MIC (S. marcescens 14689; Serratia marcescens, 14689, alone): 4 µg/mL | MIC (S. marcescens 14981; Serratia marcescens, 14981, Concomitant (ME:SM = 1:1)): 1 µg/mL | MIC (S. marcescens 14981; Serratia marcescens, 14981, Concomitant (ME:SM = 1:2)): 0.5 µg/mL | MIC (S. marcescens 14981; Serratia marcescens, 14981, Concomitant (ME:SM = 1:4)): 0.5 µg/mL | MIC (S. marcescens 14981; Serratia marcescens, 14981, Concomitant (ME:SM = 2:1)): 1 µg/mL | MIC (S. marcescens 14981; Serratia marcescens, 14981, alone): 1 µg/mL | MIC (S. marcescens 14991; Serratia marcescens, 14991, Concomitant (ME:SM = 1:1)): 2 µg/mL | MIC (S. marcescens 14991; Serratia marcescens, 14991, Concomitant (ME:SM = 1:2)): 1 µg/mL | MIC (S. marcescens 14991; Serratia marcescens, 14991, Concomitant (ME:SM = 1:4)): 1 µg/mL | MIC (S. marcescens 14991; Serratia marcescens, 14991, Concomitant (ME:SM = 2:1)): 1 µg/mL | MIC (S. marcescens 14991; Serratia marcescens, 14991, alone): 1 µg/mL | MIC (S. marcescens 1928513; Serratia marcescens, 1928513, Concomitant (ME:SM = 1:1)): 1 µg/mL | MIC (S. marcescens 1928513; Serratia marcescens, 1928513, Concomitant (ME:SM = 1:2)): 0.5 µg/mL | MIC (S. marcescens 1928513; Serratia marcescens, 1928513, Concomitant (ME:SM = 1:4)): 0.5 µg/mL | MIC (S. marcescens 1928513; Serratia marcescens, 1928513, Concomitant (ME:SM = 2:1)): 1 µg/mL | MIC (S. marcescens 1928513; Serratia marcescens, 1928513, alone): 1 µg/mL | MIC (S. marcescens 1944950; Serratia marcescens, 1944950, Concomitant (ME:SM = 1:1)): 8 µg/mL | MIC (S. marcescens 1944950; Serratia marcescens, 1944950, Concomitant (ME:SM = 1:2)): 4 µg/mL | MIC (S. marcescens 1944950; Serratia marcescens, 1944950, Concomitant (ME:SM = 1:4)): 4 µg/mL | MIC (S. marcescens 1944950; Serratia marcescens, 1944950, Concomitant (ME:SM = 2:1)): 8 µg/mL | MIC (S. marcescens 1944950; Serratia marcescens, 1944950, alone): 8 µg/mL | MIC (S. marcescens 2012884; Serratia marcescens, 2012884, Concomitant (ME:SM = 1:1)): 2 µg/mL | MIC (S. marcescens 2012884; Serratia marcescens, 2012884, Concomitant (ME:SM = 1:2)): 2 µg/mL | MIC (S. marcescens 2012884; Serratia marcescens, 2012884, Concomitant (ME:SM = 1:4)): 1 µg/mL | MIC (S. marcescens 2012884; Serratia marcescens, 2012884, Concomitant (ME:SM = 2:1)): 4 µg/mL | MIC (S. marcescens 2012884; Serratia marcescens, 2012884, alone): 4 µg/mL | MIC (S. marcescens 2054522; Serratia marcescens, 2054522, Concomitant (ME:SM = 1:1)): 1 µg/mL | MIC (S. marcescens 2054522; Serratia marcescens, 2054522, Concomitant (ME:SM = 1:2)): 0.5 µg/mL | MIC (S. marcescens 2054522; Serratia marcescens, 2054522, Concomitant (ME:SM = 1:4)): 0.5 µg/mL | MIC (S. marcescens 2054522; Serratia marcescens, 2054522, Concomitant (ME:SM = 2:1)): 1 µg/mL | MIC (S. marcescens 2054522; Serratia marcescens, 2054522, alone): 1 µg/mL | MIC (S. marcescens 7138; Serratia marcescens, 7138, Concomitant (ME:SM = 1:1)): 2 µg/mL | MIC (S. marcescens 7138; Serratia marcescens, 7138, Concomitant (ME:SM = 1:2)): 1 µg/mL | MIC (S. marcescens 7138; Serratia marcescens, 7138, Concomitant (ME:SM = 1:4)): 0.5 µg/mL | MIC (S. marcescens 7138; Serratia marcescens, 7138, Concomitant (ME:SM = 2:1)): 2 µg/mL | MIC (S. marcescens 7138; Serratia marcescens, 7138, alone): 2 µg/mL | MIC (S. marcescens 7155; Serratia marcescens, 7155, Concomitant (ME:SM = 1:1)): 2 µg/mL | MIC (S. marcescens 7155; Serratia marcescens, 7155, Concomitant (ME:SM = 1:2)): 1 µg/mL | MIC (S. marcescens 7155; Serratia marcescens, 7155, Concomitant (ME:SM = 1:4)): 0.5 µg/mL | MIC (S. marcescens 7155; Serratia marcescens, 7155, Concomitant (ME:SM = 2:1)): 2 µg/mL | MIC (S. marcescens 7155; Serratia marcescens, 7155, alone): 2 µg/mL | MIC (P. aeruginosa 13224; Pseudomonas aeruginosa, 13224, Concomitant (ME:SM = 1:1)): 4 µg/mL | MIC (P. aeruginosa 13224; Pseudomonas aeruginosa, 13224, Concomitant (ME:SM = 1:2)): 2 µg/mL | MIC (P. aeruginosa 13224; Pseudomonas aeruginosa, 13224, Concomitant (ME:SM = 1:4)): 2 µg/mL | MIC (P. aeruginosa 13224; Pseudomonas aeruginosa, 13224, Concomitant (ME:SM = 2:1)): 4 µg/mL | MIC (P. aeruginosa 13224; Pseudomonas aeruginosa, 13224, alone): 4 µg/mL | MIC (P. aeruginosa 13245; Pseudomonas aeruginosa, 13245, Concomitant (ME:SM = 1:1)): 2 µg/mL | MIC (P. aeruginosa 13245; Pseudomonas aeruginosa, 13245, Concomitant (ME:SM = 1:2)): 1 µg/mL | MIC (P. aeruginosa 13245; Pseudomonas aeruginosa, 13245, Concomitant (ME:SM = 1:4)): 2 µg/mL | MIC (P. aeruginosa 13245; Pseudomonas aeruginosa, 13245, Concomitant (ME:SM = 2:1)): 2 µg/mL | MIC (P. aeruginosa 13245; Pseudomonas aeruginosa, 13245, alone): 2 µg/mL | MIC (P. aeruginosa 13280; Pseudomonas aeruginosa, 13280, Concomitant (ME:SM = 1:1)): 4 µg/mL | MIC (P. aeruginosa 13280; Pseudomonas aeruginosa, 13280, Concomitant (ME:SM = 1:2)): 4 µg/mL | MIC (P. aeruginosa 13280; Pseudomonas aeruginosa, 13280, Concomitant (ME:SM = 1:4)): 4 µg/mL | MIC (P. aeruginosa 13280; Pseudomonas aeruginosa, 13280, Concomitant (ME:SM = 2:1)): 8 µg/mL | MIC (P. aeruginosa 13280; Pseudomonas aeruginosa, 13280, alone): 8 µg/mL | MIC (P. aeruginosa 13285; Pseudomonas aeruginosa, 13285, Concomitant (ME:SM = 1:1)): 4 µg/mL | MIC (P. aeruginosa 13285; Pseudomonas aeruginosa, 13285, Concomitant (ME:SM = 1:2)): 4 µg/mL | MIC (P. aeruginosa 13285; Pseudomonas aeruginosa, 13285, Concomitant (ME:SM = 1:4)): 4 µg/mL | MIC (P. aeruginosa 13285; Pseudomonas aeruginosa, 13285, Concomitant (ME:SM = 2:1)): 4 µg/mL | MIC (P. aeruginosa 13285; Pseudomonas aeruginosa, 13285, alone): 4 µg/mL
